System: 485368-065-R4-J2-PDC spheroids with HUVEC/MSC, viability
Assay: Anticancer human tumor 485368-065-R4-J2-PDC patient-derived pancreatic carcinoma cell line growth inhibition [CLK]
Conditions: for IC50: curve of first compound; for viability, T/C: stronger effect = lower value
Method in brief: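 Multi-cell-type spheroids combined patient-derived tumor cells with HUVEC endothelial cells and human mesenchymal stem cells. Paired agents were dosed in half-log steps down from about clinical Cmax, or from 10 microM where Cmax was unknown.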

[1] = second compound 0.0316 µM, first compound 0.0316 µM
[2] = second compound 0.0316 µM, first compound 0.1 µM
[3] = second compound 0.0316 µM, first compound 0.316 µM
[4] = second compound 0.0316 µM, first compound 1 µM
[5] = second compound 0.1 µM, first compound 0.0316 µM
[6] = second compound 0.1 µM, first compound 0.1 µM
[7] = second compound 0.1 µM, first compound 0.316 µM
[8] = second compound 0.1 µM, first compound 1 µM
[9] = second compound 0.316 µM, first compound 0.0316 µM
[10] = second compound 0.316 µM, first compound 0.1 µM
[11] = second compound 0.316 µM, first compound 0.316 µM
[12] = second compound 0.316 µM, first compound 1 µM
[13] = second compound 1 µM, first compound 0.0316 µM
[14] = second compound 1 µM, first compound 0.1 µM
[15] = second compound 1 µM, first compound 0.316 µM
[16] = second compound 1 µM, first compound 1 µM
[17] = second compound 3.16 µM, first compound 0.0316 µM
[18] = second compound 3.16 µM, first compound 0.1 µM
[19] = second compound 3.16 µM, first compound 0.316 µM
[20] = second compound 3.16 µM, first compound 1 µM
[21] = second compound 10 µM, first compound 0.0316 µM
[22] = second compound 10 µM, first compound 0.1 µM
[23] = second compound 10 µM, first compound 0.316 µM
[24] = second compound 10 µM, first compound 1 µM
[25] = second compound 0.0316 µM, first compound 0.00316 µM
[26] = second compound 0.0316 µM, first compound 0.01 µM
[27] = second compound 0.1 µM, first compound 0.00316 µM
[28] = second compound 0.1 µM, first compound 0.01 µM
[29] = second compound 0.316 µM, first compound 0.00316 µM
[30] = second compound 0.316 µM, first compound 0.01 µM
[31] = second compound 1 µM, first compound 0.00316 µM
[32] = second compound 1 µM, first compound 0.01 µM
[33] = second compound 3.16 µM, first compound 0.00316 µM
[34] = second compound 3.16 µM, first compound 0.01 µM
[35] = second compound 10 µM, first compound 0.00316 µM
[36] = second compound 10 µM, first compound 0.01 µM
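Also: spheroids exposed to compounds for seven days.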
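For viability, T/C in this document: 100% = DMSO vehicle control wells.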

## CC(Nc1ccc2c(c1)OCCn1cc(N3C(=O)OCC3C(F)F)nc1-2)C(N)=O (stereo unspecified) + CNC(=O)c1ccc(Nc2nc(OC3CCCC3)c3c(-c4ccc5nc(C)oc5c4)c[nH]c3n2)c(OC)c1
Second compound 0.0316 µM
  IC50: > 10000 nM
Second compound 0.1 µM
  IC50: > 10000 nM
Second compound 0.316 µM
  IC50: > 10000 nM
Second compound 1 µM
  IC50: 2510 nM
Second compound 3.16 µM
  IC50: 368 nM
Second compound 10 µM
  IC50: 400 nM
[1]
  viability, T/C: 93.5%
[2]
  viability, T/C: 119%
[3]
  viability, T/C: 105%
[4]
  viability, T/C: 97.2%
Second compound 0.0316 µM, first compound 3.16 µM
  viability, T/C: 90.4%
Second compound 0.0316 µM, first compound 10 µM
  viability, T/C: 79.3%
[5]
  viability, T/C: 92.3%
[6]
  viability, T/C: 116%
[7]
  viability, T/C: 102%
[8]
  viability, T/C: 89.8%
Second compound 0.1 µM, first compound 3.16 µM
  viability, T/C: 75.2%
Second compound 0.1 µM, first compound 10 µM
  viability, T/C: 67.5%
[9]
  viability, T/C: 76.8%
[10]
  viability, T/C: 82.1%
[11]
  viability, T/C: 71.1%
[12]
  viability, T/C: 63.8%
Second compound 0.316 µM, first compound 3.16 µM
  viability, T/C: 63.3%
Second compound 0.316 µM, first compound 10 µM
  viability, T/C: 54.1%
[13]
  viability, T/C: 81.8%
[14]
  viability, T/C: 64.8%
[15]
  viability, T/C: 63.2%
[16]
  viability, T/C: 57.8%
Second compound 1 µM, first compound 3.16 µM
  viability, T/C: 47.5%
Second compound 1 µM, first compound 10 µM
  viability, T/C: 43.7%
[17]
  viability, T/C: 68.2%
[18]
  viability, T/C: 59%
[19]
  viability, T/C: 50%
[20]
  viability, T/C: 45.8%
Second compound 3.16 µM, first compound 3.16 µM
  viability, T/C: 38.7%
Second compound 3.16 µM, first compound 10 µM
  viability, T/C: 36.6%
[21]
  viability, T/C: 61%
[22]
  viability, T/C: 56.6%
[23]
  viability, T/C: 50.1%
[24]
  viability, T/C: 45.5%
Second compound 10 µM, first compound 3.16 µM
  viability, T/C: 41.5%
Second compound 10 µM, first compound 10 µM
  viability, T/C: 33.8%

## CCN1CCN(Cc2ccc(Nc3ncc(F)c(-c4cc(F)c5nc(C)n(C(C)C)c5c4)n3)nc2)CC1 + CNC(=O)c1ccc(Nc2nc(OC3CCCC3)c3c(-c4ccc5nc(C)oc5c4)c[nH]c3n2)c(OC)c1
Second compound 0.0316 µM
  IC50: > 1000 nM
Second compound 0.1 µM
  IC50: > 1000 nM
Second compound 0.316 µM
  IC50: > 1000 nM
Second compound 1 µM
  IC50: > 1000 nM
Second compound 3.16 µM
  IC50: > 1000 nM
Second compound 10 µM
  IC50: > 1000 nM
[25]
  viability, T/C: 95.9%
[26]
  viability, T/C: 106%
[1]
  viability, T/C: 103%
[2]
  viability, T/C: 135%
[3]
  viability, T/C: 134%
[4]
  viability, T/C: 117%
[27]
  viability, T/C: 89.4%
[28]
  viability, T/C: 92%
[5]
  viability, T/C: 93%
[6]
  viability, T/C: 95.1%
[7]
  viability, T/C: 109%
[8]
  viability, T/C: 100%
[29]
  viability, T/C: 81.5%
[30]
  viability, T/C: 81%
[9]
  viability, T/C: 75.2%
[10]
  viability, T/C: 66.5%
[11]
  viability, T/C: 84.5%
[12]
  viability, T/C: 72.9%
[31]
  viability, T/C: 71.8%
[32]
  viability, T/C: 77.3%
[13]
  viability, T/C: 82.8%
[14]
  viability, T/C: 75.7%
[15]
  viability, T/C: 75.4%
[16]
  viability, T/C: 73.2%
[33]
  viability, T/C: 72.7%
[34]
  viability, T/C: 71.7%
[17]
  viability, T/C: 67.1%
[18]
  viability, T/C: 63.1%
[19]
  viability, T/C: 60.2%
[20]
  viability, T/C: 63.2%
[35]
  viability, T/C: 72.1%
[36]
  viability, T/C: 65.1%
[21]
  viability, T/C: 66%
[22]
  viability, T/C: 60.7%
[23]
  viability, T/C: 60.4%
[24]
  viability, T/C: 56.3%

## COc1c(OCCCN2CCOCC2)ccc2c3n(c(=NC(=O)c4cnc(N)nc4)nc12)CCN3 + CNC(=O)c1ccc(Nc2nc(OC3CCCC3)c3c(-c4ccc5nc(C)oc5c4)c[nH]c3n2)c(OC)c1
Second compound 0.0316 µM
  IC50: 220 nM
Second compound 0.1 µM
  IC50: 243 nM
Second compound 0.316 µM
  IC50: 136 nM
Second compound 1 µM
  IC50: 54.9 nM
Second compound 3.16 µM
  IC50: 42.6 nM
Second compound 10 µM
  IC50: 35.3 nM
[25]
  viability, T/C: 81.5%
[26]
  viability, T/C: 124%
[1]
  viability, T/C: 111%
[2]
  viability, T/C: 66.1%
[3]
  viability, T/C: 44.5%
[4]
  viability, T/C: 40.5%
[27]
  viability, T/C: 103%
[28]
  viability, T/C: 121%
[5]
  viability, T/C: 110%
[6]
  viability, T/C: 68.4%
[7]
  viability, T/C: 48%
[8]
  viability, T/C: 39.9%
[29]
  viability, T/C: 72.4%
[30]
  viability, T/C: 80.8%
[9]
  viability, T/C: 72.6%
[10]
  viability, T/C: 54.9%
[11]
  viability, T/C: 36.2%
[12]
  viability, T/C: 37.3%
[31]
  viability, T/C: 76.7%
[32]
  viability, T/C: 65.4%
[13]
  viability, T/C: 59.6%
[14]
  viability, T/C: 42.1%
[15]
  viability, T/C: 31.1%
[16]
  viability, T/C: 30.5%
[33]
  viability, T/C: 71.2%
[34]
  viability, T/C: 61.2%
[17]
  viability, T/C: 56.2%
[18]
  viability, T/C: 38.5%
[19]
  viability, T/C: 28.4%
[20]
  viability, T/C: 28.5%
[35]
  viability, T/C: 66.4%
[36]
  viability, T/C: 65.3%
[21]
  viability, T/C: 49.7%
[22]
  viability, T/C: 38.8%
[23]
  viability, T/C: 27.1%
[24]
  viability, T/C: 30.1%

— PubChem BioAssay AID2060617 (Molecular Pharmacology Branch, DTP, NCI, 2025)
